8 molecules from article PMC8745263 (International Journal of Molecular Sciences, 2021) can be followed below.

In data set [1] the target is T1, APEH partially purified from human blood cells (Homo sapiens, UniProt P13798).
T1 construct: incubated with APEH partially purified from human blood cells; from tissue; host or cells: human red blood cells (erythrocyte hemolysate from donors' blood)
T1 sequence (P13798 1-732): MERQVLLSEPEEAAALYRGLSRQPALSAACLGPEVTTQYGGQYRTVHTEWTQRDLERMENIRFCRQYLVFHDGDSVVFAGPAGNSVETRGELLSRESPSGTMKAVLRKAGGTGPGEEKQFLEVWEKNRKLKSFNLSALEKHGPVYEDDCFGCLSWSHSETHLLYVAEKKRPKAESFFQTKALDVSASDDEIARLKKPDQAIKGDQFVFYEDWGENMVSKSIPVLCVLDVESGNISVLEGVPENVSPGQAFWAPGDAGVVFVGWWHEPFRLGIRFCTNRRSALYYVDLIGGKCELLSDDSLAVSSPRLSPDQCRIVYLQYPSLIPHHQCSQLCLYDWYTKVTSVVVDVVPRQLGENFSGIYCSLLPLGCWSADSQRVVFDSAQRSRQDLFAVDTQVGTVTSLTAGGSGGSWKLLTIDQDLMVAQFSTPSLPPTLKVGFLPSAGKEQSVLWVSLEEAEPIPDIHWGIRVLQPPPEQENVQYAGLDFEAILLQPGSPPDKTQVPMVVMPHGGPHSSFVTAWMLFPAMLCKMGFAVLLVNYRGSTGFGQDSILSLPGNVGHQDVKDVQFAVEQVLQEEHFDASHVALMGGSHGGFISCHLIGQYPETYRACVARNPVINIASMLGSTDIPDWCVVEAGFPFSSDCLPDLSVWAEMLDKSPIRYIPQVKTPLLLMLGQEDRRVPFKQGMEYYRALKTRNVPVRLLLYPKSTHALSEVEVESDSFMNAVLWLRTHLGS
Briefly: Treatment of peptides with APEH and assessment of proteolysis by LC-MS. In kind it is biochemical. The following applies: 10 nmol/200 μL peptide, APEH 0.7 μg, 37 °C, 48 h; for % fragment cleaved on carboxy side of H59 (Ac-...HTH, lacking LVQQA), percentage of the initial substrate / % fragment cleaved on carboxy side of Q62 (Ac-...HTHLVQ, lacking QA), percentage of the initial substrate / % intact peptide left after APEH exposure (percentage of the initial substrate): Tris-HCl 25 mM pH 7.5, EIC peak areas, average of three independent experiments; for % Degradation (overall % of peptide degraded upon exposure to APEH): sum of fragment % of Table 2(a), Tris-HCl 25 mM pH 7.5, N.D. = not degraded. Here is the method:
In order to identify the potential cleavage sites of APEH on the oxidized GDF11[48-64], the peptide was incubated alone or in combination with the enzyme and the corresponding reaction mixtures were analyzed by LC-MS. The same experiments were performed using the non-oxidized analogues as control.
Blood samples were taken from donors using syringes with heparin. In accordance with ethical principles stated in the Declaration of Helsinki, as well as with approved national and international guidelines for human research, a written informed consent was obtained from participants. The erythrocytes were separated from the plasma by centrifugation at 1800× g for 5 min at 4 °C and washed twice with an isotonic solution (10 mM Tris-HCl pH 7.6, […]; 4 °C). Lysis of erythrocytes was carried out by incubation in hypotonic solution (25 mM Tris/HCl, pH 7.5) for 30 min on ice. The hemolysate was obtained by centrifugation of the lysate at 9200× g for 40 min at 4 °C. Then, the ‘soluble fraction’ was loaded onto a DEAE Sepharose Fast Flow column, connected to an AKTA FPLC system (Amersham Biosciences, Amersham, UK), previously equilibrated in 25 mM Tris-HCl (pH 7.5) (buffer A). The bound proteins were eluted using a linear ionic strength gradient (0–100%) of 1 M NaCl in buffer A at a flow rate of 1 mL min^−1. The active fractions were collected, pooled, dialyzed against 25 mM Tris-HCl pH 7.5 and loaded on a Superdex 200 PC 3.2/30 column (Pharmacia Biotech, Stockholm, Sweden) connected to a SMART System (Pharmacia Biotech, Stockholm, Sweden). The bound proteins were eluted with 25 mM Tris-HCl buffer, pH 7.5, containing 50 mM NaCl, at a flow rate of 0.1 mL min^−1. The active fractions were collected, pooled, dialyzed against 25 mM Tris-HCl pH 7.5 and stored in the same buffer supplemented with 5% glycerol. Enzyme purification was monitored using Ac-Met-7-amino-4-methylcoumarin (AMC) as substrate. Active fractions were analyzed by SDS-PAGE (12%) in order to evaluate the enrichment of the protein during the various purification steps. The protein was also characterized by Western Blot analysis. Aliquots of protein samples were subjected to SDS-PAGE (8%), and then electroblotted onto PVDF membranes (ImmobilonTM, Millipore, Milan, Italy). Membranes were next incubated with the specific primary antibody (sc-102311, 1:5000, Santa Cruz Biotechnology, USA) and then with the horseradish peroxidase-conjugated secondary antibody for 1 h at 37 °C (1:5000, Santa Cruz Biotechnology, Dallas, TX, USA). The immune complexes formed were visualized by enhanced chemiluminescence and autoradiography, according to the manufacturer’s protocol (Amersham Biosciences, Amersham, UK). Molecular mass of the native enzyme was established by gel filtration chromatography on a Superdex 200 PC 3.2/30 column (Pharmacia Biotech, Stockholm, Sweden), connected to a SMART system (Pharmacia Biotech, Stockholm, Sweden), and calibrated with BioRad gel filtration standards (BioRad, Milano, Italy; code 151-1901). The enzyme inhibition assay was performed on APEH preparation using the selective and potent inhibitor AA74-1 (SML0358, Sigma-Aldrich, Milano, Italy). Mixtures containing appropriate amount of inhibitor (62 µM) and APEH sample (0.7 μg) were pre-incubated for 30 min at 37 °C; then the substrate Ac-Met-7-amino-4-methylcoumarin (AMC) was added to the assay mixture and the enzymatic activity was followed as previously described. Control samples were prepared by pre-incubating the same amounts of APEH without the inhibitor and then assayed following the same procedure.
In total, 10 nmol/200 μL of each molecule was incubated with APEH partially purified from human blood cells (0.7 μg, 24.000 total units) at 37 °C for 48 h in Tris-HCl 25 mM pH 7.5. […]

In the next data set the test system is APEH. Description: APEH partially purified from human blood cells (0.7 μg, 24.000 total units) in Tris-HCl 25 mM pH 7.5. The following applies: 37 °C, up to 48 h.

“Also recorded” adds a separate entry of the source. Square brackets hold non-standard residues; d marks the D form. Peptide text beside a SMILES is read from it. Met(O) = CS(=O)CC[C@H](N)C(=O)O

Turning to `CC(=O)N[C@@H](CCC(=O)O)C(=O)N[C@@H](Cc1ccc(O)cc1)C(=O)N[C@@H](CC[S+](C)[O-])C(=O)N[C@@H](C)C(=O)N[C@@H](CC[S+](C)[O-])C(=O)N[C@@H](CCC(N)=O)C(=O)N[C@@H](CCCCN)C(=O)N[C@@H](Cc1ccc(O)cc1)C(=O)N1CCC[C@H]1C(=O)N[C@@H](Cc1c[nH]cn1)C(=O)N[C@H](C(=O)N[C@@H](Cc1c[nH]cn1)C(=O)N[C@@H](CC(C)C)C(=O)N[C@H](C(=O)N[C@@H](CCC(N)=O)C(=O)N[C@@H](CCC(N)=O)C(=O)N[C@@H](C)C(N)=O)C(C)C)[C@@H](C)O` (some centres unmarked) [GDF11[48-64] F51A ox] (Ac-EY[Met(O)]A[Met(O)]QKYPHTHLVQQA-NH2), in data set [1], the “% fragment cleaved on carboxy side of H59 (Ac-...HTH, lacking LVQQA), percentage of the initial substrate” value is listed as 11.7%; the “% fragment cleaved on carboxy side of Q62 (Ac-...HTHLVQ, lacking QA), percentage of the initial substrate” value came to 3.3%; the “% intact peptide left after APEH exposure (percentage of the initial substrate)” value is listed as 85.0%; the “% Degradation (overall % of peptide degraded upon exposure to APEH)” value (“% Degradation” below) is 15.0%.
Regarding `CC(=O)N[C@@H](CCC(=O)O)C(=O)N[C@@H](Cc1ccc(O)cc1)C(=O)N[C@@H](CC[S+](C)[O-])C(=O)N[C@@H](C)C(=O)N[C@@H](C)C(=O)N[C@@H](CCC(N)=O)C(=O)N[C@@H](CCCCN)C(=O)N[C@@H](Cc1ccc(O)cc1)C(=O)N1CCC[C@H]1C(=O)N[C@@H](Cc1c[nH]cn1)C(=O)N[C@H](C(=O)N[C@@H](Cc1c[nH]cn1)C(=O)N[C@@H](CC(C)C)C(=O)N[C@H](C(=O)N[C@@H](CCC(N)=O)C(=O)N[C@@H](CCC(N)=O)C(=O)N[C@@H](C)C(N)=O)C(C)C)[C@@H](C)O` (some centres unmarked) [GDF11[48-64] F51M52AA ox] (Ac-EY[Met(O)]AAQKYPHTHLVQQA-NH2), in data set [1], the “% fragment cleaved on carboxy side of H59 (Ac-...HTH, lacking LVQQA), percentage of the initial substrate” value was determined as 16.5%; the “% fragment cleaved on carboxy side of Q62 (Ac-...HTHLVQ, lacking QA), percentage of the initial substrate” value came out at 0.3%; the “% intact peptide left after APEH exposure (percentage of the initial substrate)” value is on record as 83.2%; the “% Degradation” value is reported as 16.8%.
Take `CC(=O)N[C@@H](CCC(=O)O)C(=O)N[C@@H](Cc1ccc(O)cc1)C(=O)N[C@@H](CC[S+](C)[O-])C(=O)N[C@@H](Cc1ccccc1)C(=O)N[C@@H](CC[S+](C)[O-])C(=O)N[C@@H](CCC(N)=O)C(=O)N[C@@H](CCC(=O)O)C(=O)N[C@@H](Cc1ccc(O)cc1)C(=O)N1CCC[C@H]1C(=O)N[C@@H](Cc1c[nH]cn1)C(=O)N[C@H](C(=O)N[C@@H](Cc1c[nH]cn1)C(=O)N[C@@H](CC(C)C)C(=O)N[C@H](C(=O)N[C@@H](CCC(N)=O)C(=O)N[C@@H](CCC(N)=O)C(=O)N[C@@H](C)C(N)=O)C(C)C)[C@@H](C)O` (some centres unmarked) [GDF11[48-64] K54E ox] (Ac-EY[Met(O)]F[Met(O)]QEYPHTHLVQQA-NH2): in data set [1], the “% fragment cleaved on carboxy side of H59 (Ac-...HTH, lacking LVQQA), percentage of the initial substrate” value was 18.7%; the “% fragment cleaved on carboxy side of Q62 (Ac-...HTHLVQ, lacking QA), percentage of the initial substrate” value is reported as “did not undergo cleavage”; the “% intact peptide left after APEH exposure (percentage of the initial substrate)” value amounted to 81.3%; the “% Degradation” value is given as 18.7%.
For the molecule `CC(=O)N[C@@H](CCC(=O)O)C(=O)N[C@@H](Cc1ccc(O)cc1)C(=O)N[C@@H](C)C(=O)N[C@@H](C)C(=O)N[C@@H](CC[S+](C)[O-])C(=O)N[C@@H](CCC(N)=O)C(=O)N[C@@H](CCCCN)C(=O)N[C@@H](Cc1ccc(O)cc1)C(=O)N1CCC[C@H]1C(=O)N[C@@H](Cc1c[nH]cn1)C(=O)N[C@H](C(=O)N[C@@H](Cc1c[nH]cn1)C(=O)N[C@@H](CC(C)C)C(=O)N[C@H](C(=O)N[C@@H](CCC(N)=O)C(=O)N[C@@H](CCC(N)=O)C(=O)N[C@@H](C)C(N)=O)C(C)C)[C@@H](C)O` (some centres unmarked) [GDF11[48-64] M50F51AA ox] (Ac-EYAA[Met(O)]QKYPHTHLVQQA-NH2), in data set [1], the “% fragment cleaved on carboxy side of H59 (Ac-...HTH, lacking LVQQA), percentage of the initial substrate” value is listed as 11.3%; the “% fragment cleaved on carboxy side of Q62 (Ac-...HTHLVQ, lacking QA), percentage of the initial substrate” value came to 2.0%; the “% intact peptide left after APEH exposure (percentage of the initial substrate)” value came to 86.7%; the “% Degradation” value is recorded as “about 13%”. In data set [1] (listed as M50F51AA), the “% fragment cleaved on carboxy side of H59 (Ac-...HTH, lacking LVQQA), percentage of the initial substrate” value was “about 11%”. Also, the “% Degradation” value in data set [1] (listed as GDF11[48-64]ox M50F51AA) was 13.3%.
Regarding `CC(=O)N[C@@H](CCC(=O)O)C(=O)N[C@@H](C)C(=O)N[C@@H](CC[S+](C)[O-])C(=O)N[C@@H](Cc1ccccc1)C(=O)N[C@@H](CC[S+](C)[O-])C(=O)N[C@@H](CCC(N)=O)C(=O)N[C@@H](CCCCN)C(=O)N[C@@H](Cc1ccc(O)cc1)C(=O)N1CCC[C@H]1C(=O)N[C@@H](Cc1c[nH]cn1)C(=O)N[C@H](C(=O)N[C@@H](Cc1c[nH]cn1)C(=O)N[C@@H](CC(C)C)C(=O)N[C@H](C(=O)N[C@@H](CCC(N)=O)C(=O)N[C@@H](CCC(N)=O)C(=O)N[C@@H](C)C(N)=O)C(C)C)[C@@H](C)O` (some centres unmarked) [GDF11[48-64] Y49A ox] (Ac-EA[Met(O)]F[Met(O)]QKYPHTHLVQQA-NH2), in data set [1], the “% fragment cleaved on carboxy side of H59 (Ac-...HTH, lacking LVQQA), percentage of the initial substrate” value came to 11.5%; the “% fragment cleaved on carboxy side of Q62 (Ac-...HTHLVQ, lacking QA), percentage of the initial substrate” value turned out to be 10.2%; the “% intact peptide left after APEH exposure (percentage of the initial substrate)” value was found to be 78.3%; the “% Degradation” value came out at 21.7%. Further, the “% fragment cleaved on carboxy side of H59 (Ac-...HTH, lacking LVQQA), percentage of the initial substrate” value in data set [1] (listed as Y49A) is listed as “about 11%”.
Regarding Ac-EAM(ox)FM(ox)QKYPHTHLVQQA-NH2, the cleaved bond result in the data set with APEH was “Q62-Q; also recorded: H59-L”.
For Ac-EYAAM(ox)QKYPHTHLVQQA-NH2, the cleaved bond entry in the data set with APEH is “Q62-Q; also recorded: H59-L, major”.
On to “Ac-EYAFAQKYPHTHLVQQA-NH2 [GDF11[48-65] M50M52AA, control peptide where the two methionines were replaced with alanine residues]”, for which, in data set [1], the “% intact peptide left after APEH exposure (percentage of the initial substrate)” value is recorded as 100%.
